Data published in patent US7635696B2, “Isoxazoline-indole derivatives with an improved antipsychotic and anxiolytic activity” (Janssen Pharmaceutica N.V., priority 2004, dated 2009).

Tests used:
[1] = molecular target: T1, Human Dopamine D2L receptor (Homo sapiens, UniProt P14416); test: Binding experiment for dopamine D2 receptor ([3H]Spiperone); settings: D2L-transfected CHO cell membranes; for IC50: read-out: pIC50 D2 (converted)
T1 construct: expressed in transfected cells; host or cells: CHO cells
Description: (§1) The interaction of the compounds of Formula (I) with dopamine-receptors, h5HT-transporter and h5HT1A receptor was assessed in in vitro radioligand binding experiments. In general, a low concentration of a radioligand with a high binding affinity for a particular receptor or transporter is incubated with a sample of a tissue preparation enriched in a particular receptor or transporter or with a preparation of cells expressing cloned human receptors in a buffered medium. During the incubation, the radioligand binds to the receptor or transporter. When equilibrium of binding is reached, the receptor bound radioactivity is separated from the non-bound radioactivity, and the receptor- or transporter-bound activity is counted. The interaction of the test compounds with the receptor is assessed in competition binding experiments. Various concentrations of the test compound are added to the incubation mixture containing the receptor- or transporter preparation and the radioligand. The test compound in proportion to its binding affinity and its concentration inhibits binding of the radioligand.
Human Dopamine D2L receptor-transfected CHO cells were collected by scraping into ice-cold Tris-HCl buffer (50 mM, pH 7.4). The suspension was centrifuged (23 500×g, 10 min, 4° C.) and pellets stored at −70° C. until required. They were then thawed and briefly homogenised using an Ultra-Turrax T25 homogeniser prior to dilution to an appropriate protein concentration optimised for specific and non-specific binding. [^3H]Spiperone (NEN, specific activity ˜70 Ci/mmol) was diluted in Tris-HCl assay buffer containing NaCl, CaCl2, MgCl2, KCl (50, 120, 2, 1, and 5 mM respectively, adjusted to pH 7.7 with HCl) at a concentration of 2 nmol/L. Prepared radioligand (50 μl) was then incubated (30 min, 37° C.) with membrane preparations pre-diluted to an appropriate protein concentration (400 μl), and with 50 μl of either the 10% DMSO control, Butaclamol (10^−6 mol/L final concentration), or compound of interest. Membrane-bound activity was detected by filtration through a Packard Filtermate harvester onto Unifilterplates, washing with ice-cold Tris-HCl buffer (50 mM; pH8.0; 3×4 ml). Filters were allowed to dry before adding scintillation fluid and counting in a Topcount scintillation counter. % Specific bound and competition binding curves were calculated using S-Plus software (Insightful).

[2] = molecular target: T2, Human Dopamine D3 receptor (Homo sapiens, UniProt P35462); test: Binding experiment for dopamine D3 receptor ([125I]Iodosulpride); settings: transfected CHO cell membranes; for IC50: read-out: pIC50 D3 (converted)
T2 construct: expressed in transfected cells; host or cells: CHO cells
Description: as §1
Human Dopamine D3 receptor-transfected CHO cells were collected by scraping into ice-cold Tris-HCl buffer (50 mM, pH 7.4). The suspension was centrifuged (23 500×g, 10 min, 4° C.) and pellets stored at −70° C. until required. They were then thawed and briefly homogenised using an Ultra-Turrax T25 homogeniser prior to dilution to an appropriate protein concentration optimised for specific and non-specific binding. [^125I]Iodosulpride (Amersham, specific activity 2000 Ci/mmol) was diluted in Tris-HCl assay buffer containing NaCl, CaCl2, MgCl2, KCl and BSA (50, 120, 2, 1, 5 mM, 0.1% respectively, adjusted to pH 7.7 with HCl) at a concentration of 2 nmol/L. Prepared radioligand (20 μl) was incubated (60 min, RT) and with 20 μl of either the 10% DMSO control, Risperidone (10^−6 mol/L final concentration), or compound of interest, then with membrane preparations (80 μl). Overnight incubation followed after addition of WGA-coated PVT SPA beads (250 μl; Amersham) and membrane-bound counts measured in a Wallac Microbeta. % Specific bound and competition binding curves were calculated using S-Plus software (Insightful).

human 5HT transporter = molecular target: T3, human 5HT transporter (Homo sapiens, UniProt P31645); test: Binding experiment for 5-HT transporter ([3H]Paroxetine); settings: transfected HEK cell membranes, [3H]Paroxetine; for IC50: read-out: pIC50 5HTT (converted)
T3 construct: host or cells: HEK cells
Description: as §1
Frozen human 5HT transporter-transfected HEK cells (Perkin Elmer, Brussels) were thawed and briefly homogenised using an Ultra-Turrax T25 homogeniser prior to dilution to an appropriate protein concentration optimised for specific and non-specific binding. [^3H]Paroxetine (NEN, specific activity 20 Ci/mmol) was diluted in Tris-HCl assay buffer containing NaCl and KCl (50 mM, 120 mM and 5 mM, respectively; pH 7.4) at a concentration of 5 nmol/L. Prepared radioligand (25 μl) was then incubated (60 min, 25° C.) with membrane preparations (200 μl) and with 25 μl of either 10% DMSO control, Inipramine (10^−6 mol/L final concentration), or compound of interest. Membrane-bound activity was detected by filtration through a Packard Filtermate harvester onto Unifilterplates pre-soaked in 0.1% PEI, washing with ice-cold assay buffer (3×4 ml). Filters were dried prior to addition of scintillation fluid and then counting in a Topcount scintillation counter. % Specific bound and competition binding curves were calculated using S-Plus software (Insightful).

Human 5HT1A receptor = molecular target: T4, Human 5HT1A receptor (Homo sapiens, UniProt P08908); test: Binding experiment for 5-HT1A receptor ([3H]8OHDPAT); settings: transfected L929 cell membranes, [3H]8OHDPAT; for IC50: read-out: pIC50 5-HT1A (converted)
T4 construct: expressed in transfected cells; host or cells: L929 cells (stably transfected)
T4 sequence (P08908 1-422): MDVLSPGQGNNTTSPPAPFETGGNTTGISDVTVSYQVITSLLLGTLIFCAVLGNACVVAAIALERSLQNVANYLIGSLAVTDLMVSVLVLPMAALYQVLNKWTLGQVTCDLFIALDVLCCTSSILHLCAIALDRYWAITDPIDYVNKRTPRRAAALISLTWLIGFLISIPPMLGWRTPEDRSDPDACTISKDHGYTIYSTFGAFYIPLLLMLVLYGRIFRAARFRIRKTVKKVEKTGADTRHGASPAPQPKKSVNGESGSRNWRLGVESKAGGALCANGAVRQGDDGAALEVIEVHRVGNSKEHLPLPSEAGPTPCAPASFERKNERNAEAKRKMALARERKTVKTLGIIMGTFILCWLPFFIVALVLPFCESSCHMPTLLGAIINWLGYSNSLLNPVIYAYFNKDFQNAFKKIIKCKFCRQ
Description: as §1
Human 5HT1A receptor-transfected L929 cells were collected by scraping into ice-cold Tris-HCl buffer (50 mM, pH 7.4). The suspension was centrifuged (23 500×g, 10 min, 4° C.) and pellets stored at −70° C. until required. They were then thawed and briefly homogenised using an Ultra-Turrax T25 homogeniser prior to dilution to an appropriate protein concentration optimised for specific and non-specific binding. [^3H]80HDPAT (NEN, specific activity 127 Ci/mmol) was diluted in Tris-HCl assay buffer containing CaCl2 (50 mM and 4 mM, respectively; pH 7.7) at a concentration of 5 nmol/L. Prepared radioligand (50 μl) was then incubated (30 min, 37° C.) with membrane preparations from L929 cells stably-transfected with the h5HT1A gene construct (400 μl) and with 50 μl of either the 10% DMSO control, spiroxatrine (10^−6 mol/L final concentration), or compound of interest. Membrane-bound activity was detected by filtration through a Packard Filtermate harvester onto Unifilterplates, washing with ice-cold Tris-HCl buffer (3×4 ml), followed by drying. Scintillation fluid was added and membranes were counted in a Topcount scintillation counter. % Specific bound and competition binding curves were calculated using S-Plus software (Insightful).

T1 sequence (P14416 whole entry): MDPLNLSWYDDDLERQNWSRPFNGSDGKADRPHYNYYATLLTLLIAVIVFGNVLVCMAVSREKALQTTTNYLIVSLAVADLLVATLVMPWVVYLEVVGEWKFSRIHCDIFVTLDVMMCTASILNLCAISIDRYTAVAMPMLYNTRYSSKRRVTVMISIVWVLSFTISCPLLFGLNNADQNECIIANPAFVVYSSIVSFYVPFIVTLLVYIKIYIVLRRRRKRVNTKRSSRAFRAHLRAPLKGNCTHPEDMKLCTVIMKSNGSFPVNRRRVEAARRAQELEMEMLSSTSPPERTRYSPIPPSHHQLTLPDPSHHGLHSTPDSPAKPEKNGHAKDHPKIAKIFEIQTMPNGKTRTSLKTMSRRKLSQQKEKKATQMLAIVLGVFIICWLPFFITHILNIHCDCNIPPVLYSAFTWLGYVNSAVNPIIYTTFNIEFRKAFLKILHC
T2 sequence (P35462 whole entry): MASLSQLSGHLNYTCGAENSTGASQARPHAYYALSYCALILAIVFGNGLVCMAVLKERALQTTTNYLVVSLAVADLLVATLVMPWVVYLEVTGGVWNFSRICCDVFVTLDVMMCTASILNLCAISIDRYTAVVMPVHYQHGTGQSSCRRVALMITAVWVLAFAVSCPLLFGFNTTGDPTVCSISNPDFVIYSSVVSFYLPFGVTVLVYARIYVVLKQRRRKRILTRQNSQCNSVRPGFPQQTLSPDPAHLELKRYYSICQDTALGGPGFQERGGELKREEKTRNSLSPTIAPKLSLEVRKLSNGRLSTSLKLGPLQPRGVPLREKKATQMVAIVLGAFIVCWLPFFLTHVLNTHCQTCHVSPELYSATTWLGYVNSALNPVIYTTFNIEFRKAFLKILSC
T3 sequence (P31645 whole entry): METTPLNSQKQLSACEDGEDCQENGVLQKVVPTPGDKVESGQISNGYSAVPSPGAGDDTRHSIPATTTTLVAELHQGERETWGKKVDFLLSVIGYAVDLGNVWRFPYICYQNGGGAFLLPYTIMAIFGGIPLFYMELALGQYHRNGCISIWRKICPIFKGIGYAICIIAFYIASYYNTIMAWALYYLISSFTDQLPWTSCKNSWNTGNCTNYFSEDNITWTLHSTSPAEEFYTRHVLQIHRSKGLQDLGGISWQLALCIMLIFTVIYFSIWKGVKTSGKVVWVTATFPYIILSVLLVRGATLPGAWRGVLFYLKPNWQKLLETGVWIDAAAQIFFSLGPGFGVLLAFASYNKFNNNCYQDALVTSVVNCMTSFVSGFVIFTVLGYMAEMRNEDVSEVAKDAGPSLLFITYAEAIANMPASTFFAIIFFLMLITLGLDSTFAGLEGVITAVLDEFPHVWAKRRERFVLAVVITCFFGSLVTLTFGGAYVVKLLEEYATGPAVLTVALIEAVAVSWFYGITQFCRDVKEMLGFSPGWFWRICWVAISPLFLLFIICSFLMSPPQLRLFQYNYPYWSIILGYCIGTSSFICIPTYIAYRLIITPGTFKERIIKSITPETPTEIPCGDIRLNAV

COc1cc2c(cc1OC)C1=NOC(CN3CC=C(c4c[nH]c5ccc(F)cc45)CC3)C1CO2 (racemic) [Compound 1]
IC50 [1]: 398 nM | IC50 [2]: 126 nM | IC50 (human 5HT transporter): 15.8 nM | IC50 (Human 5HT1A receptor): 31.6 nM

COc1cc2c(cc1OC)C1=NOC(CN3CCC(c4c[nH]c5ccc(F)cc45)CC3)C1CO2 (racemic) [Compound 2]
pIC50 D2 [1]: 7.2 | pIC50 D3 [2]: 7.2 | pIC50 5HTT (human 5HT transporter): 7.4 | pIC50 5-HT1A (Human 5HT1A receptor): 8.8

COc1ccc2[nH]cc(C3=CCN(CC4ON=C5c6cc(OC)c(OC)cc6OCC54)CC3)c2c1 (racemic) [Compound 7]
pIC50 D2 [1]: <6 | pIC50 D3 [2]: <6 | pIC50 5HTT (human 5HT transporter): 6.4 | pIC50 5-HT1A (Human 5HT1A receptor): 8.1

COc1cc2c(cc1OC)C1=NOC(CN3CC=C(c4c[nH]c5cccc(F)c45)CC3)C1CO2 (racemic) [Compound 9]
pIC50 D2 [1]: 6.1 | pIC50 D3 [2]: 6.6 | pIC50 5HTT (human 5HT transporter): 7.5 | pIC50 5-HT1A (Human 5HT1A receptor): 8.2

COc1cc2c(cc1OC)C1=NOC(CN3CC=C(c4c[nH]c5ccc(Br)cc45)CC3)C1CO2 (racemic) [Compound 10]
pIC50 D2 [1]: 6.3 | pIC50 D3 [2]: 6.5 | pIC50 5HTT (human 5HT transporter): 6.7 | pIC50 5-HT1A (Human 5HT1A receptor): 8.3

COc1cc2c(cc1OC)C1=NOC(CN3CCC(c4c[nH]c5cccc(F)c45)CC3)C1CO2 (racemic) [Compound 17]
pIC50 D2 [1]: 6.9 | pIC50 D3 [2]: 6.3 | pIC50 5HTT (human 5HT transporter): 7.6 | pIC50 5-HT1A (Human 5HT1A receptor): 8.2

COc1cc2c(cc1OC)C1=NOC(CN3CC=C(c4c[nH]c5ccc(C)cc45)CC3)C1CO2 (racemic) [Compound 18]
pIC50 D2 [1]: 6.4 | pIC50 D3 [2]: 6.4 | pIC50 5HTT (human 5HT transporter): 7.0 | pIC50 5-HT1A (Human 5HT1A receptor): 8.2

COc1cc2c(cc1OC)C1=NOC(CN3CC=C(c4c[nH]c5ccc([N+](=O)[O-])cc45)CC3)C1CO2 (racemic) [Compound 19]
pIC50 D2 [1]: 6.1 | pIC50 D3 [2]: 6.5 | pIC50 5HTT (human 5HT transporter): 7.1 | pIC50 5-HT1A (Human 5HT1A receptor): 8.1

COc1cc2c(cc1OC)C1=NOC(CN3CCC(c4c[nH]c5ccc(N)cc45)CC3)C1CO2 (racemic) [Compound 20]
pIC50 D2 [1]: 6.2 | pIC50 D3 [2]: <6 | pIC50 5HTT (human 5HT transporter): 5.4 | pIC50 5-HT1A (Human 5HT1A receptor): 7.6

COc1cc2c(cc1OC)C1=NOC(CN3CC=C(c4c[nH]c5ccc(O)cc45)CC3)C1CO2 (racemic) [Compound 21]
IC50 [1]: 631 nM | IC50 [2]: 158 nM | IC50 (human 5HT transporter): 39.8 nM | IC50 (Human 5HT1A receptor): 12.6 nM

COc1cc2c(cc1OC)C1=NOC(CN3CC=C(c4c[nH]c5ccc(-c6ccccc6)cc45)CC3)C1CO2 (racemic) [Compound 22]
IC50 [1]: 3980 nM | IC50 [2]: 3160 nM | IC50 (human 5HT transporter): 2510 nM | IC50 (Human 5HT1A receptor): 25.1 nM

COc1cc2c(cc1OC)C1=NOC(CN3CC=C(c4c[nH]c5ccc(C#N)cc45)CC3)C1CO2 (racemic) [Compound 23]
pIC50 D2 [1]: 6.1 | pIC50 D3 [2]: 6.8 | pIC50 5HTT (human 5HT transporter): 7.4 | pIC50 5-HT1A (Human 5HT1A receptor): 8.2

COc1cc2c(cc1OC)C1=NOC(CN3CCC(c4c[nH]c5cc(F)ccc45)CC3)C1CO2 (single isomer, unassigned) [Compound 35]
pIC50 D2 [1]: 6.9 | pIC50 5HTT (human 5HT transporter): 7.3 | pIC50 5-HT1A (Human 5HT1A receptor): 6.4

COc1cc2c(cc1OC)C1=NOC(CN3CCC(c4c[nH]c5cc(F)ccc45)CC3)C1CO2 (single isomer, unassigned) [Compound 36]
pIC50 D2 [1]: 7.5 | pIC50 5HTT (human 5HT transporter): 6.8 | pIC50 5-HT1A (Human 5HT1A receptor): 8.0

COc1cc2c(cc1OC)C1=NOC(CN3CCC(c4c[nH]c5ccccc45)CC3)C1CO2.O=C(O)C(=O)O (single isomer, unassigned) [Compound 45]
pIC50 D2 [1]: 6.3 | pIC50 5HTT (human 5HT transporter): 6.9 | pIC50 5-HT1A (Human 5HT1A receptor): 7.0

COc1cc2c(cc1OC)C1=NOC(CN3CC=C(c4c[nH]c5ccc(N)cc45)CC3)C1CO2 (stereo not drawn) [Compound 33]
IC50 [1]: 1260 nM | IC50 (human 5HT transporter): 631 nM | IC50 (Human 5HT1A receptor): 12.6 nM

COc1cc2c(cc1OC)C1=NOC(CN3CCC(c4coc5cc(F)ccc45)CC3)C1CO2 (stereo not drawn) [Compound 59]
IC50 [1]: 100 nM | IC50 (human 5HT transporter): 79.4 nM | IC50 (Human 5HT1A receptor): 15.8 nM

COCCOCOc1ccc2[nH]cc(C3=CCN(CC4ON=C5c6cc(OC)c(OC)cc6OCC54)CC3)c2c1 (stereo not drawn) [Compound 62]
IC50 [1]: > 10000 nM | IC50 (human 5HT transporter): > 10000 nM | IC50 (Human 5HT1A receptor): 63.1 nM
